Reference: publication PMC9025810, “Interaction of Antifungal Drugs with CYP3A- and OATP1B-Mediated Venetoclax Elimination” (Pharmaceutics, 2022)
Like-named read-outs stand apart in the source and are kept apart here. *1 amine or outer side, *2 acyl side, *3 side chain or, on linkers, in order; H or OH if unused. Where a SMILES comes first, the peptide text is derived from it. Bridges are numbered along the chain shown (N, C = ends). [ ]: non-standard residue; d: D form. The star is where a group is joined. hTyr(3S-OH,4S-OH,3'-OSO3H) = N[C@H](C(=O)O)[C@H](O)[C@@H](O)c1ccc(O)c(OS(=O)(=O)O)c1; pTerphenylCO(4''-OnC5H11) = CCCCCOc1ccc(-c2ccc(-c3ccc(C(=O)*)cc3)cc2)cc1; Orn(4R-OH,5R-OH) = O=C([C@H](C[C@@H](O)[C@@H](O)N[*:3])N[*:1])[*:2]; hTyr(3S-OH,4S-OH) = N[C@H](C(=O)O)[C@H](O)[C@@H](O)c1ccc(O)cc1; Pro(3S-OH,4S-Me) = C[C@H]1CN[C@H](C(=O)O)[C@H]1O; X1 = CCCCCOc1ccc(-c2cc(-c3ccc(C(=O)*)cc3)no2)cc1; Gln(3R-OH) = NC(=O)C[C@@H](O)[C@H](N)C(=O)O; Hyp = O=C(O)[C@@H]1C[C@@H](O)CN1

Columns and labels:
OATP1B1 [1] = target: T1, OATP1B1 (Homo sapiens, UniProt Q9Y6L6); test: Inhibition of OATP1B1-mediated [3H]EβG uptake in HEK293 cells; conditions: for IC50: 0.2 µM EβG, 15 min pre-incubation + 15 min co-incubation; for OATP1B1 inhibitory potency compared with parent drug itraconazole: EβG uptake
T1 sequence (Q9Y6L6 1-691): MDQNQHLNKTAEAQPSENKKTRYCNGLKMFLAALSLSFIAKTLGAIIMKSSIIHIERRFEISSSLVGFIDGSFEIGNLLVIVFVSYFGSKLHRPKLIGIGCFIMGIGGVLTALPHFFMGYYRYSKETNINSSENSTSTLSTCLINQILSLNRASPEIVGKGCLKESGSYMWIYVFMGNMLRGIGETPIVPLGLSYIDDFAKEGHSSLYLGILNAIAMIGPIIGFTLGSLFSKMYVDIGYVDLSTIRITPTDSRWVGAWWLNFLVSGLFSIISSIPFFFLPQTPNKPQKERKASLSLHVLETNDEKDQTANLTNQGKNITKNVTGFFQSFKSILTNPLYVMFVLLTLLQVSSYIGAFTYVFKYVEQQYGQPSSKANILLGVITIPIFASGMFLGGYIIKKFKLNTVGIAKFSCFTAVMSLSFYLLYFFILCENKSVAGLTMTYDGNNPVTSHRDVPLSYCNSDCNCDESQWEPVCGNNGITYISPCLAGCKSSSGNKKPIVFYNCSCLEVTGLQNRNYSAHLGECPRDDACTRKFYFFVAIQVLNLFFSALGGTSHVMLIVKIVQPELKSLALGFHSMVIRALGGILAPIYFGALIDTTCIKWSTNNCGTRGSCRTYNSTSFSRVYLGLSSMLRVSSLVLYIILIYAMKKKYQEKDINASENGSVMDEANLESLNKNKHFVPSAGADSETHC
Experimental: (§1) In brief, radioactive uptake assays were performed utilizing HEK293 cell lines stably expressing OATP1B1 or OATP1B2, or cells expressing the respective vector control (VC) [17, 18]. […] Cells were cultured in Dulbecco’s Modified Eagle Medium (DMEM; Invitrogen) supplemented with 10% FBS; the media for cells expressing OATP1B1 or VC was supplemented with hygromycin B (25 mg/mL; Invitrogen), and blasticidin (37.5 mg/mL; Biovision).
(§2) For inhibition experiments, cells were seeded in 12- or 24-well plates in phenol red-free media and were incubated at 37 °C for 24 h; cells overexpressing OATP1B1 or VC were incubated with doxycycline (1 µg/mL) for 24 h. Cells were washed with warm PBS and pre-incubated with the indicated concentrations of each potential inhibitor (or an equal volume of vehicle) in phenol red-free DMEM (without FBS and supplements) at 37 °C for 15 min. […] The experiment was terminated by washing three times with ice-cold PBS. Cells were lysed with 1 N NaOH overnight at 4 °C, and the solution was neutralized with 2 M HCl. […] The OATP1B-mediated uptake was calculated by dividing the disintegrations per minute (dpm) from each replicate by the amount of protein (mg) and subtracting the dpm/mg protein in the VC cell line. The OATP1B1-mediated uptake at each concentration of each antifungal drug was then compared with the OATP1B1-mediated uptake when only an equal volume of vehicle (water or DMSO) was added without the antifungal drug.

OATP1B2 = target: T2, OATP1B2 (Mus musculus, UniProt Q9JJL3); test: Inhibition of OATP1B2-mediated [3H]EβG uptake in HEK293 cells
T2 sequence (Q9JJL3 1-689): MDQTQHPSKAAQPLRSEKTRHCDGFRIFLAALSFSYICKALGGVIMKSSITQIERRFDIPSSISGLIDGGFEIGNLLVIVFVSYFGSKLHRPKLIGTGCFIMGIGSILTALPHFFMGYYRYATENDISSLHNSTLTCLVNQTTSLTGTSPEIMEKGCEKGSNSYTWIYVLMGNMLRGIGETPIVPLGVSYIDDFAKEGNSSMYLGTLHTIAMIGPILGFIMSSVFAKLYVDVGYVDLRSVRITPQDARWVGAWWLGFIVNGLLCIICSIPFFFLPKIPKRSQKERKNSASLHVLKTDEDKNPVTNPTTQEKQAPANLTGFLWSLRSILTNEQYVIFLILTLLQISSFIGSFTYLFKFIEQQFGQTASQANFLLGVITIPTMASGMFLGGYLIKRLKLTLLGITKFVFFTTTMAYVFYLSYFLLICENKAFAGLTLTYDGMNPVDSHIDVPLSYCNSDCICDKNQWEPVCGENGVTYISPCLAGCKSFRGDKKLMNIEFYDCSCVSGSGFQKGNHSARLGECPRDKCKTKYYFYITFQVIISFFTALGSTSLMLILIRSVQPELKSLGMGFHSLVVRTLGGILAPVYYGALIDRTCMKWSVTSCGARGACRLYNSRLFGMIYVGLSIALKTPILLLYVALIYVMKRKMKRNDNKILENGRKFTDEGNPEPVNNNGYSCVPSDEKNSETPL
Experimental: as §1, §2

OATP1B1 [2] = target: T1, OATP1B1; test: In vitro to in vivo extrapolation (FDA basic models: Cmax,ss/IC50 and R value); conditions: FDA 2020 guidance Equation (2), >1.1 indicates potential to inhibit in vivo
Description: In brief, we utilized the equation Cmax,ss/IC50. To use this equation, we identified the mean total peak concentration at the steady-state of each potential inhibitor (Cmax,ss) from the published literature on the clinical pharmacokinetics of each agent (Supplementary Table S2). We then divided Cmax,ss by the IC50 of the respective agents. (1) CMax,ss/IC50
As indicated by the FDA guidelines, values of >0.1 indicate the potential for a clinically relevant interaction.
To utilize this equation, we used the previously determined Cmax,ss (Supplementary Table S2). Where necessary, the molar weight was used to convert the dose or Cmax,ss to µM. We determined the unbound fraction in plasma (fup) for each drug from publicly available literature. […] As recommended by the FDA guidelines, the fraction absorbed (Fa) and intestinal availability (Fg) were set to 1, fup was set to 1% when reported to be less than 1%, and the absorption constant (ka) was set to 0.1 min^−1 (as a worst-case estimate).

OATP1B1 [3] = target: T1, OATP1B1; test: Radioactive uptake and membrane/intracellular fractionation in cells overexpressing OATP1B1 or vector; assay type: cell-based; design: expressed in transfected cells; conditions: 0.2 µM EβG or 1 µM venetoclax, 15 min
Experimental: For experiments seeking to directly determine if venetoclax is an OATP1B1 substrate, cells overexpressing OATP1B1 or VC were seeded in six-well plates in phenol red-free DMEM containing 10% FBS and doxycycline (1 µg/mL) for 24 h. […] Cells were then immediately lysed with 1 mL of 1 N NaOH for 4 h on an orbital shaker at room temperature to measure total radioactivity. Alternatively, cells were trypsinized with 200 µL of TrypLE (Thermo Fisher Scientific, Waltham, MA, USA) for 3–5 min, rinsed with 800 µL of ice-cold washing buffer, and ProteoExtract Native Membrane Protein Extraction Kits (EMD Millipore, Burlington, MA, USA) were used to separate membrane and intracellular fractions. Dissociated cells were then transferred to 1.5-mL Eppendorf tubes. For measurement of total radioactivity, cells were neutralized with 500 µL of 2 M HCl after 4 h. For measurement of total radioactivity in the membrane or intracellular fraction, cells were isolated following the manufacturer’s protocol, as we have reported previously; this procedure is based on a differential extraction procedure under non-denaturing conditions.

OATP1B1 [4] = tested on: OATP1B1; design: method as in PMID 27273149; conditions: previous data, weak inhibition; cited from earlier work
[5] = cited from earlier work
OATP1B1 [6] = target: T1, OATP1B1; test: Competitive counterflow assay with 8-acetoxy-trisulfopyrene; assay type: cell-based; design: expressed in transfected cells; conditions: 5 µM ACE; venetoclax 200 µM, cyclosporin A 10 µM, paraformaldehyde 0.5%; 20 min
Experimental: Competitive counterflow assays were performed with 8-acetoxy-trisulfopyrene, an activatable fluorogenic probe for OATP1B1, as described previously. In brief, cells expressing a vector or OATP1B1 were seeded in 96-well opaque plates in phenol-red free DMEM media with 10% FBS and induced with doxycycline for 24 h. On the day of the experiment, the media was removed, and the cells were washed three times with warm PBS. The cells were then incubated for 20 min at 37 °C with 100 µL of 5 µM 8-acetoxypyrene-1,3,6-trisulfonate uptake buffer (ACE; 125 mM NaCl, 4.8 mM KCl, 1.2 mM CaCl2, 1.2 mM KH2PO4, […], 25 mM 2-N-morpholino), ethanesulfonic acid, and 5.6 mM glucose, with the pH adjusted to 5.5). […] The fluorescence was measured at excitation and emission wavelengths of 460 nm and 510 nm, respectively, after 20 min of incubation to control for the number of cells.
The plates were incubated for 20 min at 37 °C. In the final step, the supernatant was removed, and the cells were washed three times with 200 µL ice-cold PBS to stop the reaction. PBS was then removed and 200 µL of 0.1 N NaOH was added to each well to normalize the pH. The fluorescence was measured as described above after another 20 min incubation at room temperature. The levels of cell dye were reported as a percent of the measurement from cells containing ACE alone.

[7] = OATP1B2 IC50, HEK293 cells, 0.2 µM EβG, 15 min pre-incubation + 15 min co-incubation

Compound	IC50 (OATP1B1 [1]; OATP1B1 IC50, HEK293 cells) [µM]	IC50 (OATP1B2; [7]) [µM]	R value (OATP1B1 [2])	other results
CCCCCOc1ccc(-c2ccc(-c3ccc(C(=O)N[C@H]4C[C@@H](O)[C@@H](O)NC(=O)[C@@H]5[C@@H](O)[C@@H](C)CN5C(=O)[C@H]([C@@H](C)O)NC(=O)[C@H]([C@H](O)[C@@H](O)c5ccc(O)cc5)NC(=O)[C@@H]5C[C@@H](O)CN5C(=O)[C@H]([C@@H](C)O)NC4=O)cc3)cc2)cc1 [Anidulafungin] ({pTerphenylCO(4''-OnC5H11)}-[Orn(4R-OH,5R-OH)]T[Hyp][hTyr(3S-OH,4S-OH)]T[Pro(3S-OH,4S-Me)]; lactam 1-C)	42			
CC(C)c1nc(CN(C)C(=O)N[C@@H](CCN2CCOCC2)C(=O)N[C@H](CC[C@H](Cc2ccccc2)NC(=O)OCc2cncs2)Cc2ccccc2)cs1 [Cobicistat]	0.31	0.7	> 1.1	
C[C@]12CC[C@@H]3c4ccc(O)cc4CC[C@H]3[C@@H]1CC[C@@H]2O[C@@H]1O[C@H](C(=O)O)[C@@H](O)[C@H](O)[C@H]1O [EβG, Estradiol-17β-D-glucuronide]				Uptake in the intracellular fraction with overexpression of OATP1B1 versus vector (OATP1B1 [3]): significant increases
OC(Cn1cncn1)(Cn1cncn1)c1ccc(F)cc1F [Fluconazole]	4100	> 5000		
CCC(C)n1ncn(-c2ccc(N3CCN(c4ccc(OCC5COC(Cn6cncn6)(c6ccc(Cl)cc6Cl)O5)cc4)CC3)cc2)c1=O (stereo not shown) [Itraconazole]	37	> 50		
CC(=O)C(C)n1ncn(-c2ccc(N3CCN(c4ccc(OC[C@H]5CO[C@](Cn6cncn6)(c6ccc(Cl)cc6Cl)O5)cc4)CC3)cc2)c1=O (stereo partly shown) [Keto-ITZ, keto-itraconazole]				OATP1B1 inhibitory potency compared with parent drug itraconazole (OATP1B1 [1]; HEK293 cells): more potent inhibitors of OATP1B1 than the parent drug; IC50 (OATP1B1 [1]; read-out: OATP1B1 IC50, HEK293 cells): 8.3 µM
CCCCCOc1ccc(-c2cc(-c3ccc(C(=O)N[C@H]4C[C@@H](O)[C@@H](O)NC(=O)[C@@H]5[C@@H](O)[C@@H](C)CN5C(=O)[C@H]([C@H](O)CC(N)=O)NC(=O)[C@H]([C@H](O)[C@@H](O)c5ccc(O)c(OS(=O)(=O)O)c5)NC(=O)[C@@H]5C[C@@H](O)CN5C(=O)[C@H]([C@@H](C)O)NC4=O)cc3)no2)cc1 [Micafungin] (X1-[Orn(4R-OH,5R-OH)]T[Hyp][hTyr(3S-OH,4S-OH,3'-OSO3H)][Gln(3R-OH)][Pro(3S-OH,4S-Me)]; lactam 1-C)	2.1	4.9	> 1.1	
CC[C@@H]([C@H](C)O)n1ncn(-c2ccc(N3CCN(c4ccc(OC[C@@H]5CO[C@@](Cn6cncn6)(c6ccc(F)cc6F)C5)cc4)CC3)cc2)c1=O [Posaconazole]	1.9	> 80	> 1.1	IC50 (OATP1B2; IC50 (Figure S7, Relative OATP1B2 Function), HEK293 cells expressing OATP1B2, EβG uptake, value printed in figure panel): > 100 µM; IC50 at 15 min (OATP1B2; mouse, HEK293 cells stably expressing OATP1B2, probe [3H]EβG, 0.2 µM, OATP1B2 IC50, HEK293 cells, 0.2 µM EβG, 15 min pre-incubation + 15 min co-incubation): > 20 µM
CO[C@H]1/C=C/O[C@@]2(C)Oc3c(C)c(O)c4c(O)c(c(/C=N/N5CCN(C)CC5)c(O)c4c3C2=O)NC(=O)/C(C)=C\C=C\[C@H](C)[C@H](O)[C@@H](C)[C@@H](O)[C@@H](C)[C@H](OC(C)=O)[C@@H]1C [Rifampin]	< 3	2.1	> 1.1	
paraformaldehyde				Effect on fluorescence (cell dye level) in competitive counterflow (OATP1B1 [6]): did not decrease fluorescence

More lines, main results first:

IC50 (OATP1B1 [1]; OATP1B1 IC50, HEK293 cells) [µM]	IC50 (OATP1B2; [7]) [µM]	R value (OATP1B1 [2])	Compound	other results
9.2	> 100		CC[C@H](C)C[C@H](C)CCCCCCCCC(=O)N[C@H]1C[C@@H](O)[C@@H](NCCN)NC(=O)[C@@H]2[C@@H](O)CCN2C(=O)[C@H]([C@H](O)CCN)NC(=O)[C@H]([C@H](O)[C@@H](O)c2ccc(O)cc2)NC(=O)[C@@H]2C[C@@H](O)CN2C(=O)[C@H]([C@@H](C)O)NC1=O [Caspofungin]	
3.5	> 2		CC(O)C(C)n1ncn(-c2ccc(N3CCN(c4ccc(OCC5COC(Cn6cncn6)(c6ccc(Cl)cc6Cl)O5)cc4)CC3)cc2)c1=O (stereo not shown) [Hydroxy-ITZ, hydroxy-itraconazole]	OATP1B1 inhibitory potency compared with parent drug itraconazole (OATP1B1 [1]; HEK293 cells): more potent inhibitors of OATP1B1 than the parent drug
2.5	2.5	> 1.1	C[C@@H](c1nc(-c2ccc(C#N)cc2)cs1)[C@](O)(Cn1cncn1)c1cc(F)ccc1F [Isavuconazole]	IC50 (OATP1B1 [4]): > 10 µM
1.5	2.2		CC(=O)N1CCN(c2ccc(OCC3COC(Cn4ccnc4)(c4ccc(Cl)cc4Cl)O3)cc2)CC1 (stereo not shown) [Ketoconazole]	Fraction Unbound (fup) [5]: 3.2%
80	> 200		C[C@@H](c1ncncc1F)[C@](O)(Cn1cncn1)c1ccc(F)cc1F [Voriconazole]	
